Laboratory results as given in article PMC4503722, “Novel Phenotypic Outcomes Identified for a Public Collection of Approved Drugs from a Publicly Accessible Panel of Assays” (PLoS ONE, 2015).

Each compound was assayed on SNU-C1 (assay: cells). Details: assay number 30; basal.
Assay type: cell-based
O=C(CCCN1CCC(O)(c2cccc(C(F)(F)F)c2)CC1)c1ccc(F)cc1 [NCGC00015983-04] was tested, and the “Basal_Viability ATP SNU-C1 IC50/EC50” value was over 20 µM. In the case of CCCn1cnc2c1c(=O)n(CCCCC(C)=O)c(=O)n2C [NCGC00015861-09], the “Basal_Viability ATP SNU-C1 IC50/EC50” value is reported as over 20 µM. Clc1ccc(C(Cn2ccnc2)OCc2ccsc2Cl)c(Cl)c1 (stereo not shown) [NCGC00167430-04] was tested, and the “Basal_Viability ATP SNU-C1 IC50/EC50” value was 2.1843 µM. In the case of CN1CCN(c2cc3c(nn2)Oc2ccccc2N3C)CC1 [NCGC00160646-02], the “Basal_Viability ATP SNU-C1 IC50/EC50” value is reported as over 20 µM.

What follows are compounds tested on HT-29 (assay: cells). Details: assay number 28; basal.
Assay type: cell-based
In the case of O=C(CCCN1CCC(O)(c2cccc(C(F)(F)F)c2)CC1)c1ccc(F)cc1 [NCGC00015983-04], the “Basal_Viability ATP HT-29 IC50/EC50” value is reported as over 20 µM. For CCCn1cnc2c1c(=O)n(CCCCC(C)=O)c(=O)n2C [NCGC00015861-09], the “Basal_Viability ATP HT-29 IC50/EC50” value was over 20 µM. For Clc1ccc(C(Cn2ccnc2)OCc2ccsc2Cl)c(Cl)c1 (stereo not shown) [NCGC00167430-04], the “Basal_Viability ATP HT-29 IC50/EC50” value was over 20 µM. For CN1CCN(c2cc3c(nn2)Oc2ccccc2N3C)CC1 [NCGC00160646-02], the “Basal_Viability ATP HT-29 IC50/EC50” value was over 20 µM.

These compounds were tested on RKO (assay: cells). Details: assay number 29; basal.
Assay type: cell-based
O=C(CCCN1CCC(O)(c2cccc(C(F)(F)F)c2)CC1)c1ccc(F)cc1 [NCGC00015983-04] was tested, and the “Basal_Viability ATP RKO IC50/EC50” value was over 20 µM. In the case of CCCn1cnc2c1c(=O)n(CCCCC(C)=O)c(=O)n2C [NCGC00015861-09], the “Basal_Viability ATP RKO IC50/EC50” value is reported as over 20 µM. Clc1ccc(C(Cn2ccnc2)OCc2ccsc2Cl)c(Cl)c1 (stereo not shown) [NCGC00167430-04] was tested, and the “Basal_Viability ATP RKO IC50/EC50” value was 5.2538 µM. With CN1CCN(c2cc3c(nn2)Oc2ccccc2N3C)CC1 [NCGC00160646-02] the “Basal_Viability ATP RKO IC50/EC50” value was over 20 µM.

Each compound was assayed on endothelial tube formation in co-cultures of ECFCs and ADSCs treated with VEGF (assay: cells). Details: not given.
Assay type: cell-based, human
In the case of O=C(CCCN1CCC(O)(c2cccc(C(F)(F)F)c2)CC1)c1ccc(F)cc1 [NCGC00015983-04], the “VEGF_ADSC\ECFC Angio CD31 TubeArea IC50/EC50” value is reported as over 10 µM. In the case of CCCn1cnc2c1c(=O)n(CCCCC(C)=O)c(=O)n2C [NCGC00015861-09], the “VEGF_ADSC\ECFC Angio CD31 TubeArea IC50/EC50” value is reported as over 10 µM. For Clc1ccc(C(Cn2ccnc2)OCc2ccsc2Cl)c(Cl)c1 (stereo not shown) [NCGC00167430-04], the “VEGF_ADSC\ECFC Angio CD31 TubeArea IC50/EC50” value was 4.9961 µM. For CN1CCN(c2cc3c(nn2)Oc2ccccc2N3C)CC1 [NCGC00160646-02], the “VEGF_ADSC\ECFC Angio CD31 TubeArea IC50/EC50” value was over 10 µM.

The compounds below were run on DLD-1 (assay: cells). Details: assay number 23; basal.
Assay type: cell-based
In the case of O=C(CCCN1CCC(O)(c2cccc(C(F)(F)F)c2)CC1)c1ccc(F)cc1 [NCGC00015983-04], the “Basal_Viability ATP DLD-1 IC50/EC50” value is reported as over 20 µM. For CCCn1cnc2c1c(=O)n(CCCCC(C)=O)c(=O)n2C [NCGC00015861-09], the “Basal_Viability ATP DLD-1 IC50/EC50” value was over 20 µM. In the case of Clc1ccc(C(Cn2ccnc2)OCc2ccsc2Cl)c(Cl)c1 (stereo not shown) [NCGC00167430-04], the “Basal_Viability ATP DLD-1 IC50/EC50” value is reported as over 20 µM. With CN1CCN(c2cc3c(nn2)Oc2ccccc2N3C)CC1 [NCGC00160646-02] the “Basal_Viability ATP DLD-1 IC50/EC50” value was over 20 µM.

These compounds were tested on HCT116 (assay: cells). Details: assay number 25; basal.
Assay type: cell-based
With O=C(CCCN1CCC(O)(c2cccc(C(F)(F)F)c2)CC1)c1ccc(F)cc1 [NCGC00015983-04] the “Basal_Viability ATP HCT116 IC50/EC50” value was over 20 µM. With CCCn1cnc2c1c(=O)n(CCCCC(C)=O)c(=O)n2C [NCGC00015861-09] the “Basal_Viability ATP HCT116 IC50/EC50” value was over 20 µM. Clc1ccc(C(Cn2ccnc2)OCc2ccsc2Cl)c(Cl)c1 (stereo not shown) [NCGC00167430-04] was tested, and the “Basal_Viability ATP HCT116 IC50/EC50” value was 4.0687 µM. CN1CCN(c2cc3c(nn2)Oc2ccccc2N3C)CC1 [NCGC00160646-02] was tested, and the “Basal_Viability ATP HCT116 IC50/EC50” value was over 20 µM.

The compounds below were run on SW480 (assay: cells). Details: assay number 24; basal.
Assay type: cell-based
In the case of O=C(CCCN1CCC(O)(c2cccc(C(F)(F)F)c2)CC1)c1ccc(F)cc1 [NCGC00015983-04], the “Basal_Viability ATP SW480 IC50/EC50” value is reported as over 20 µM. CCCn1cnc2c1c(=O)n(CCCCC(C)=O)c(=O)n2C [NCGC00015861-09] was tested, and the “Basal_Viability ATP SW480 IC50/EC50” value was over 20 µM. Clc1ccc(C(Cn2ccnc2)OCc2ccsc2Cl)c(Cl)c1 (stereo not shown) [NCGC00167430-04] was tested, and the “Basal_Viability ATP SW480 IC50/EC50” value was over 20 µM. With CN1CCN(c2cc3c(nn2)Oc2ccccc2N3C)CC1 [NCGC00160646-02] the “Basal_Viability ATP SW480 IC50/EC50” value was over 20 µM.

What follows are compounds tested on HCT116 cells treated with a GSK3β inhibitor (assay: cells). Details: assay number 26; GSK3b inhibitor pretreated.
Assay type: cell-based
O=C(CCCN1CCC(O)(c2cccc(C(F)(F)F)c2)CC1)c1ccc(F)cc1 [NCGC00015983-04] was tested, and the “GSK3b inh pretreated_Viability ATP HCT116 IC50/EC50” value was over 20 µM. For CCCn1cnc2c1c(=O)n(CCCCC(C)=O)c(=O)n2C [NCGC00015861-09], the “GSK3b inh pretreated_Viability ATP HCT116 IC50/EC50” value was over 20 µM. In the case of Clc1ccc(C(Cn2ccnc2)OCc2ccsc2Cl)c(Cl)c1 (stereo not shown) [NCGC00167430-04], the “GSK3b inh pretreated_Viability ATP HCT116 IC50/EC50” value is reported as 2.843 µM. CN1CCN(c2cc3c(nn2)Oc2ccccc2N3C)CC1 [NCGC00160646-02] was tested, and the “GSK3b inh pretreated_Viability ATP HCT116 IC50/EC50” value was over 20 µM.

These compounds were tested on ECFC/ADSC co-culture cell nuclei number (assay: not given). Details: not given.
O=C(CCCN1CCC(O)(c2cccc(C(F)(F)F)c2)CC1)c1ccc(F)cc1 [NCGC00015983-04] was tested, and the “VEGF_ADSC\ECFC Angio Hoechst NucArea IC50/EC50” value was over 10 µM. CCCn1cnc2c1c(=O)n(CCCCC(C)=O)c(=O)n2C [NCGC00015861-09] was tested, and the “VEGF_ADSC\ECFC Angio Hoechst NucArea IC50/EC50” value was over 10 µM. Clc1ccc(C(Cn2ccnc2)OCc2ccsc2Cl)c(Cl)c1 (stereo not shown) [NCGC00167430-04] was tested, and the “VEGF_ADSC\ECFC Angio Hoechst NucArea IC50/EC50” value was 9.466 µM. CN1CCN(c2cc3c(nn2)Oc2ccccc2N3C)CC1 [NCGC00160646-02] was tested, and the “VEGF_ADSC\ECFC Angio Hoechst NucArea IC50/EC50” value was over 10 µM.

These compounds were tested on Colo320 (assay: cells). Details: assay number 27; basal.
Assay type: cell-based
O=C(CCCN1CCC(O)(c2cccc(C(F)(F)F)c2)CC1)c1ccc(F)cc1 [NCGC00015983-04] was tested, and the “Basal_Viability ATP Colo 320 IC50/EC50” value was over 20 µM. For CCCn1cnc2c1c(=O)n(CCCCC(C)=O)c(=O)n2C [NCGC00015861-09], the “Basal_Viability ATP Colo 320 IC50/EC50” value was over 20 µM. In the case of Clc1ccc(C(Cn2ccnc2)OCc2ccsc2Cl)c(Cl)c1 (stereo not shown) [NCGC00167430-04], the “Basal_Viability ATP Colo 320 IC50/EC50” value is reported as 5.2288 µM. In the case of CN1CCN(c2cc3c(nn2)Oc2ccccc2N3C)CC1 [NCGC00160646-02], the “Basal_Viability ATP Colo 320 IC50/EC50” value is reported as over 20 µM.
